Measured values reported in US20060025446A1, “Propargyl nitroxides and indanyl nitroxides and their use for the treatment of neurologic diseases and disorders” (priority 2004, published 2006).
Counter-ions that a name gives are not always drawn.

Tests used:
[1] = system: NGF-Differentiated PC12 Cells; assay: MPP+ Parkinson neurotoxicity/neuroprotection model, LDH release; type: cell-based; conditions: MPP+ 1000 μM, 48-52 hr
Method: The Parkinson Neurotoxicity Model of 1-methyl-4-phenyl piridinium (MPP+ Iodine Salt, 1000 μM for 48-52 hr), Using 7-10 Days NGF-Differentiated PC12 Cells.
The slow developing cell death in this model is believed to be a result of inhibition of mitochondrial complex I and generation of oxygen and nitrogen radicals. Therefore the antioxidant tempol (4-HYDROXY-TEMPO) was used as a positive standard in the screening experiments with the compounds. The following detailed protocol was employed for testing.
MPP+—Neurotoxicity/Neuroprotection Protocol:
• 1. PC12 cells (2×10^5 cells) were seeded on NUNC 6-well dishes coated with 200 μg/ml collagen (rat tail type I) and grown in DMEM medium containing 7% Fetal Calf Serum, 7% Horse Serum and […] Penicilin and 100 ug/ml Streptomycin. • 2. Differentiation of the cells for 7-10 days was achieved by treatment with mouse β-NGF (β-nerve growth factor) (50 ng/ml) added freshly every 2-3 days to the culture medium. • 3. Cultures were progressively evaluated for the differentiation response expressed by elongation of neurites, increased percentage of responsive cells, and other morphological parameters. • 4. At the day of the experiment, the medium of the differentiated cultures was replaced to fresh medium containing NGF (50 ng/ml). • 5. […] LDH (lactic dehydrogenase) release to the medium (neurotoxicity) was measured after 48-52 hr after the addition of MPP+, using an ELISA reader. […]
Neurotoxicity is defined as the percentage of LDH released to the medium at the end of the experiment calculated according to the following formula: {LDH(MPP)−LDH(control)}/{LDH(total)−LDH(control)}×100=Neurotoxicity (% of total cell death) • LDH(MPP): LDH release at the end of MPP+ insult • LDH(control): LDH release at the end of experiment from untreated cultures • LDH(total): LDH released from the cultures upon freezing at −80° C. and thawing at room temperature (release of total/maximal LDH present in the culture) […]

[2] = system: EAE using MOG (Myelin Oligodendrocyte Glycoprotein); assay: MOG induced EAE in mice; type: in vivo, Female C57B1/6 mice
[3] = system: Neutrophils; assay: PMA-induced oxidative burst in neutrophils model (DCFH, FACS); type: cell-based; conditions: PMA 10 ng/ml for 30 minutes
Method: PMA-Induced Oxidative Burst in Neutrophils Model
The cells were activated with PMA (10 ng/ml) for 30 minutes and incubated with 2,7-dichlorodihydrofluorescin diacetate (DCFH), which is converted to a fluorescent compound in the presence of oxygen radicals and peroxynitrites. The fluorescent cells were detected in a cell sorter (FACS).

[4] = system: Human Red Blood Cells; assay: Hypochlorite (HOCl) hemolysis of human red blood cells model; type: cell-based; conditions: antioxidant activity; compounds dissolved at 5 mg/ml, aliquots tested
Method: Hypochlorite (HOCl) Hemolysis of Human Red Blood Cells Model
The reaction is based on the ability of oxygen radicals to lyse red blood cells. Antioxidant compounds such as ascorbic acid and 4-hydroxy-TEMPO (TEMPOL) prevent membrane damage in a dose dependent manner. All compounds were dissolved at a concentration of 5 mg/ml and aliquots were tested for their ability to prevent lysis.

[5] = Chemiluminescence model (without cells): Luminol, SIN-1, selenite, BSA; type: biochemical; conditions: antioxidant activity
Description: Chemiluminescence Model (Without Cells)
Luminescence was generated in vials containing the following compounds: Luminol, SIN-1 (a generator of NO radicals), selenite, BSA. This reaction is inhibited by scavengers of peroxynitirites as well as scavengers of NO and other oxygen free radicals.

[6] = system: Experimental Allergic Encephalomyelitis (EAE) using PLP 139-151; assay: PLP induced EAE in mice; type: in vivo, Female SJL mice; conditions: 50 mg/kg/day orally by gavage, day 1 to day 20; for Incid.: sick animals/animals in group
Method: Induction of Experimental Allergic Encephalomyelitis (EAE) Using PLP
Female SJL mice (12 weeks old) were inoculated with the encephalitogienic peptide of proteolipid protein (PLP 139-151) synthesized to a purity of 70% by Sigma (Israel). 150 μg of the peptide were emulsified in complete Freund's adjuvant (CFA) (Difco Laboratories), supplemented with killed mycobacteria (5 mg/ml) and pertussis toxin (200 ng) (Sigma), given subcutaneously at day of inoculation only.
Mice were kept at specific pathogen free (SPF) conditions and given water and food ad libitum. Mice were daily observed for clinical signs from day 10 until day 18-21 post inoculation.
Treatment with Test Compounds
Compounds were dissolved in 2-hydroxypropyl beta cyclodextrin (40% water solution). Treatment started at day 1 post inoculation. The compounds B10 and A10 (50 mg/kg) and vehicle were given orally by gavage every day until day 20 post inoculation.
Interpretation of Results: Calculation of the Incidence of Disease
The number of sick animals in each group was summed. The percentage of sick animals in each group was calculated.
Calculation of the Mean Maximal Score (MMS)
The maximal scores of each of the 15 mice in the group were summed.
The mean maximal score of the group were calculated as follows: Σ maximal score of each mouse/number of mice in the group. Calculation of the Mean Disease Duration (MDD)
The mean duration of disease expressed in days was calculated as follows: Σ duration of disease of each mouse/number of mice in the group. Calculation of the Group Mean Score (GMS)
The scores of each of the 15 mice in the group was summed and the mean score per day was calculated.
The group mean score was calculated as follows: Σ total score of each mouse per day/number of mice in the group.

[7] = dose 50 mg/kg/day, gavage x2/day, day 1 to 30

Row | SMILES | PMA (% cells activated) [3] [%] | HOCl (% lysis) [4] [%] | Chemiluminescence (% inhib.) [5] [%] | MDD (mean disease duration) [6] [days] | MDO (mean day of onset) [6] | MMS (mean maximal score) [6] | Mean score [6] | Incid. [6] | other results
1 | C#CCN[C@@H]1CCc2ccc(NC(=O)OC3CC(C)(C)N([O])C(C)(C)C3)cc21 [Compound A11, (3-Prop-2-ynylamino-indan-5-yl) carbamic acid 2,2,6,6-tetramethyl-1-piperidinyloxy-4-yl ester HCl] | – | – | – | – | – | – | – | – | Neuroprotection MPP+ ([1]; at 10 μM): 43% at 10; effect on EAE ([2]; discussion of results): significant beneficial effect; onset of clinical signs of EAE ([2]; discussion of results): long delay; MDD (mean disease duration) [2, 7]: 8.0 ± 2.02 days; MDO (mean day of onset) [2, 7]: 17.14 ± 0.80; MMS (mean maximal score) [2, 7]: 2.93 ± 0.76; Mean score [2, 7]: 0.65 ± 0.09; Incid. ([2]; sick animals/animals in group, dose 50 mg/kg/day, gavage x2/day, day 1 to 30): 7/13
2 | CC1(C)CC(O)CC(C)(C)N1[O] [Tempol, 4-hydroxy-2,2,6,6-tetramethylpiperidine-1-nitroxide] | 70 | 25 | 57 | – | – | – | – | – | Neuroprotection MPP+ ([1]; at 0.5-1.0 mmol): Active at 0.5-1.0
3 | O=C1O[C@H]([C@@H](O)CO)C(O)=C1O [Ascorbic acid] | 100 | 100 | 100 | – | – | – | – | – | –
4 | C#CCNC1CC(C)(C)N([O])C(C)(C)C1.Cl [Compound B10, 2,2,6,6-Tetramethyl-4-(prop-2-ynylamino)-piperidine nitroxide HCl] | – | 45 | 42 | 5.2 ± 0.97 | 13.6 ± 0.81 | 5.0 ± 0.77 | 3.57 ± 0.29 | 5/5 | Neuroprotection MPP+ ([1]; at 1 & 10 μM): Active at 1 & 10; (# dead) [6]: 3
5 | C#CCN[C@@H]1CCc2ccc(OC(=O)NC3CC(C)(C)N([O])C(C)(C)C3)cc21.Cl [Compound A10, (2,2,6,6-Tetramethyl-1-piperidinyloxy-4-yl)-carbamic acid 3(R)-prop-2-ynylamino-indan-5-yl ester HCl] | – | – | – | 5.8 ± 0.86 | 11 ± 0.2 | 5.0 ± 0.8 | 3.4 ± 0.3 | 5/5 | –
